Experimental data reported in patent US20050072047A1, “Tobacco having reduced nicotine and nitrosamines” (priority 2002, published 2005).
Like-named read-outs stand apart in the source and are kept apart here.

Columns and labels:
[1] = test system: tobacco plants; experiment: Nicotine and TSNA levels of field tobacco plants contacted with the compound, versus untreated plants; assay type: in vivo; conditions: compared to untreated tobacco plants
Method: To reduce the level of nicotine and/or nitrosamine in a cultivated crop or field of tobacco, a concentrated solution of 2,4-D in water (e.g., a 10% solution) with the wetting agent “Agral 60” (e.g., a 0.0006% v/v miscible oil emulsion) is prepared. A control solution containing the wetting agent without 2,4-D is also prepared. These solutions are diluted to 0.1, 1, 10, or 100 ppm of 2,4-D in the final spray solution. Control and experimental fields of tobacco (e.g., Burley, Virginia Flue, and Oriental varieties in separate test plots cultivated by conventional techniques for the particular varieties) at various ages of maturity (some of which have been topped) are sprayed with parallel dilutions of the wetting agent alone. Plants are then sprayed with the above solutions to the dripping-off point. Plants are allowed to continue growing normally for 14 days. Plants are then harvested and sample leaves (from the same position on the plants of the same age) are quick-frozen using liquid nitrogen. Nicotine levels are measured on these sample leaves using standard techniques.
A quick drying curing technique or a conventional curing technique particular to the variety being tested is employed to obtain cured leaves (non-green or yellow dried leaves). Conventional TSNA analysis is then performed on the cured leaves and stems and/or portions thereof (e.g., lamina and midrib of the leaf). By following this approach, the amount of 2,4-D to apply to a specific variety of tobacco, for a specific age of plant (topped or not topped) in the field to achieve a reduced nicotine and/or nitrosamine level is readily determined. In the following example, ethylene precursors, such as ethephon, are used to decrease jasmonate-induced nicotine and/or nitrosamine levels in tobacco.

[2] = test system: tobacco plants; conditions: early flowering stage; Fung et al. 1973; cited from earlier work
[3] = test system: lipoxygenase; conditions: potato; Kolomiets et al. 2001; cited from earlier work
[4] = test system: lipoxygenase; conditions: soybean; Creelman 1992; cited from earlier work
[5] = test system: jasmonic acid levels in plants; conditions: Schweizer et al. 1997; cited from earlier work

## O=C(O)COc1ccc(Cl)cc1Cl [2,4-D, 2,4-Dichlorophenoxyacetic acid]
[1]
  level of TSNAs in treated tobacco plants: reduced levels
  level of nicotine in treated tobacco plants: reduced levels
[2]
  harm to tobacco plants: most harmful to tobacco plants during the early flowering stage

## COc1ccc2cc([C@H](C)C(=O)O)ccc2c1 [Naproxen]
[3]
  effect on lipoxygenase activity: inhibit lipoxygenase activity
[4]
  effect on lipoxygenase activity: inhibit lipoxygenase activity

## O=C(O)c1ccccc1O [salicylic acid, 2-hydroxybenzoic acid]
[1]
  level of TSNAs in treated tobacco plants: reduced amount
  level of nicotine in treated tobacco plants: reduced amount

## Clc1ccc(N2N=N[C@@H]3[C@@H]4C[C@@H]([C@H]5N=N[C@@H]45)[C@@H]32)cc1 [tetcyclacis]
[1]
  level of TSNAs in treated tobacco plants: reduced amount
  level of nicotine in treated tobacco plants: reduced amount
[5]
  effect on jasmonic acid levels in plants: inhibit jasmonic acid levels
